This assay deals with T1, TLP-1 (Prunus mume, UniProt A0ABM0NSQ8).
T1 sequence (A0ABM0NSQ8 27-249): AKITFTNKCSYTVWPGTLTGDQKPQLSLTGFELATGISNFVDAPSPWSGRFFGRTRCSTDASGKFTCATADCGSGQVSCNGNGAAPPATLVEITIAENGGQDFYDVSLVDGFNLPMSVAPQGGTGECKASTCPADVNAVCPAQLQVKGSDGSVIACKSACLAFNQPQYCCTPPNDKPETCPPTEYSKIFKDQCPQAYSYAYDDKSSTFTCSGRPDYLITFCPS
Briefly: catechol oxidation, absorbance at […] nm. To be noted: read-out: Relative activity (%) / 10 (mM). The assay is classed as biochemical.

From PMC9055924 (RSC Advances, 2020) come the findings set out here.

The structures appear in SMILES notation.

Turning to `NC(=O)CC[C@H](N)C(=O)O` [L-Glutamine], the activity at 10000 µM was found to be 83.5 ± 2.24%. For the compound `CCCCCCc1ccc(O)cc1O` [4-Hexylresorcinol], the activity at 10000 µM was 15.6 ± 0.44%.
